Laboratory results from US10100076B2, “Modified nucleosides for the treatment of viral infections and abnormal cellular proliferation” (priority 2000, dated 2018).

Tests used:
[1] = tested on: rRNA (host RNA polymerase I product); assay: rRNA ΔCt in Huh7 replicon cells (effect on host RNA polymerases); conditions: Table 24, average of n
From the text: In a typical setting, a compound might reduce both the host RNA polymerase activity and the replicon-encoded polymerase activity. Therefore, quantification of rRNA (or any other host RNA polymerase I product) or beta-actin mRNA (or any other host RNA polymerase II) and comparison with RNA levels of the no-drug control is a relative measurement of the effect of the test compound on host RNA polymerases.
With the availability of both the HCV ΔCt data and the rRNA ΔCt, a specificity parameter can be introduced. This parameter is obtained by subtracting both ΔCt values from each other.

[2] = tested on: HCV replicon; assay: HCV replicon system in Huh7 cells, replicon RNA by Q-RT-PCR (HCV ΔCt, ΔΔCt); format: cell-based, hepatitis C virus; conditions: for Ave. ΔΔCt: HCV RNA ΔCt minus rRNA ΔCt; for Ave. HCV RNA ΔCt: HCV replicon in Huh7 cells; for average ΔΔCt: HCV RNA ΔCt minus rDNA ΔCt
[3] = tested on: rDNA (host DNA); assay: rDNA ΔCt in Huh7 replicon cells (effect on cellular DNA polymerases); conditions: Table 25, average of N
From the text: In another typical setting, a compound might reduce the host RNA polymerase activity, but not the host DNA polymerase activity. Therefore, quantification of rDNA or beta-actin DNA (or any other host DNA fragment) and comparison with DNA levels of the no-drug control is a relative measurement of the inhibitory effect of the test compound on cellular DNA polymerases.
With the availability of both the HCV ΔCt data and the rDNA ΔCt, a specificity parameter can be introduced. This parameter is obtained by subtracting both ΔCt values from each other.

[4] = tested on: Vero cells; assay: cells; format: cell-based; conditions: for % inhibition at 100 μM, Vero Cells: three day incubation, MTT
Description: (§1) The cytotoxicity testing as performed herein is a standard technique. Briefly, cells are seeded in 96-well plates at various concentrations (dependent on cell type, duration of assay), typically at 5×10^3 cells per well, in the presence of increasing concentrations of the test compound (0, 1, 3, 10, 33, and 100 μM). After three (Vero cells), or four (CEM cells), or five (PBM cells) day-incubation, cell viability and mitochondrial activity are measured by adding the MTT-dye (Promega), followed by a 8 hours incubation. Afterwards the plates containing the dye are fixed by adding a stop-solution followed by another eight hour incubation. Finally, absorbance is read at 570 nm. Such methodologies are well described and available from the manufacturer (Promega).

[5] = tested on: PBM cells; assay: cells; format: cell-based, human; conditions: for % inhibition at 100 μM, PBM cells: five day incubation, MTT
Description: as §1

[6] = tested on: CEM cells; assay: cells; format: cell-based, human; conditions: for % inhibition at 100 μM, CEM Cells: four day incubation, MTT
Description: as §1

| SMILES | Ave. rRNA ΔCt [1] | Ave. ΔΔCt ([2]; Table 24) | Ave. HCV RNA ΔCt ([2]; Table 24, average of n) | average ΔΔCt ([2]; Table 25) | Ave. HCV RNA ΔCt ([2]; Table 25, average of N) | Ave. rDNA ΔCt [3] | IC50 [4] [µM] | % inhibition at 100 μM, Vero Cells [4] [%] | IC50 [5] [µM] | % inhibition at 100 μM, PBM cells [5] [%] | IC50 [6] [µM] | % inhibition at 100 μM, CEM Cells [6] [%] |
| --- | --- | --- | --- | --- | --- | --- | --- | --- | --- | --- | --- | --- |
| Nc1cn([C@@H]2O[C@H](CO)[C@@H](O)[C@H]2O)c(=O)nc1N [β-D-BJ] | 3.62 | 1.44 | 5.06 | 3.53 | 4.34 | 0.81 | – | – | – | – | – | – |
| N=c1nc(N)ccn1[C@@H]1O[C@H](CO)[C@@H](O)[C@@H]1O [β-D-BL] | 1.93 | 0.35 | 2.28 | 0.65 | 2.28 | 1.62 | – | – | – | – | – | – |
| O=c1nc(NO)c(F)cn1[C@@H]1O[C@H](CO)[C@@H](O)[C@H]1O [β-D-BT] | 3.59 | 1.24 | 4.83 | 3.39 | 4.44 | 1.17 | – | – | – | – | – | – |
| O=c1nc(NO)c(Br)cn1[C@@H]1O[C@H](CO)[C@@H](O)[C@H]1O [β-D-BU] | 2.18 | 1.06 | 3.46 | 1.16 | 3.46 | 1.10 | – | – | – | – | – | – |
| O=c1nc(NO)c(I)cn1[C@@H]1O[C@H](CO)[C@@H](O)[C@H]1O [β-D-BV] | 0.65 | 1.22 | 1.88 | 1.65 | 1.88 | 0.31 | – | – | – | – | – | – |
| O=c1[nH]c(=O)n([C@@H]2O[C@H](CO)[C@@H](O)[C@H]2O)cc1F [β-D-CC] | 4.82 | 0.21 | 5.04 | 3.66 | 5.84 | 2.17 | – | – | – | – | – | – |
| Nc1ncnc2c1ncn2[C@@H]1O[C@H](CO)[C@@H](F)[C@H]1O [β-D-DD] | 4.99 | 1.61 | 6.60 | 3.30 | 6.60 | 3.30 | – | – | – | – | – | – |
| OC[C@@H]1C[C@H](F)[C@H](n2cnc3c(Cl)ncnc32)O1 [β-D-DH] | 2.91 | 1.21 | 4.13 | 3.25 | 4.14 | 0.89 | – | – | – | – | – | – |
| O=C(Nc1nc(=O)n([C@H]2C=C[C@@H](CO)O2)cc1F)c1ccccc1[N+](=O)[O-] [β-D-EB] | 1.42 | 1.90 | 3.33 | 2.37 | 3.33 | 0.96 | – | – | – | – | – | – |
| OC[C@@H]1C=C(F)[C@H](n2cnc3c(Cl)ncnc32)O1 [β-D-FA] | 3.58 | 1.44 | 3.80 | 0.78 | 3.80 | 1.92 | – | – | – | – | – | – |
| O=c1[nH]c(=O)n([C@@H]2C[C@H](CO)[C@@H](O)[C@H]2O)cc1F [β-D-GF] | – | – | – | – | – | – | > 100 | 4.3 | > 100 | −46.2 | > 100 | 11.2 |
| Nc1ccn([C@@H]2C=C(CO)[C@@H](O)[C@H]2O)c(=O)n1 [β-D-HA] | 3.85 | 1.68 | 5.52 | 3.16 | 5.12 | 2.04 | – | – | – | – | – | – |
| Nc1nc(=O)n([C@@H]2C=C(CO)[C@@H](O)[C@H]2O)cc1F [β-D-HB] | 1.65 | 1.30 | 2.94 | 0.40 | 1.90 | 1.19 | – | – | – | – | – | – |
| Nc1nc(Cl)c2ncn([C@H]3CS[C@@H](CO)O3)c2n1 [β-D-KB] | 2.52 | 1.10 | 3.61 | 3.81 | 3.81 | 0.00 | – | – | – | – | – | – |
| O=c1nc2n(cc1F)[C@@H]1O[C@H](CO2)[C@@H](O)[C@H]1O [β-D-LA] | 4.10 | 0.89 | 3.85 | 1.98 | 3.54 | 1.56 | – | – | – | – | – | – |
| CC(=O)O[C@H]1[C@@H]2Oc3nc(=N)ccn3[C@@H]2O[C@@H]1CO [β-D-MD] | 1.95 | 1.62 | 3.57 | 1.46 | 3.50 | 1.58 | – | – | – | – | – | – |
| N=c1ccn2c(n1)O[C@H]1[C@H](O)[C@@H](CO)O[C@H]12 [β-D-ME] | 1.25 | 1.64 | 2.89 | 1.36 | 2.89 | 1.53 | – | – | – | – | – | – |
| N=c1nc2n(cc1F)[C@@H]1O[C@H](CO)[C@@H](O)[C@@H]1O2 [β-D-MF] | 2.69 | 1.10 | 3.79 | 1.65 | 3.79 | 2.17 | – | – | – | – | – | – |
| Nc1nc(SSc2nc(N)nc3c2ncn3[C@@H]2O[C@H](CO)[C@@H](O)[C@H]2O)c2ncn([C@@H]3O[C@H](CO)[C@@H](O)[C@H]3O)c2n1 [β-D-QA] | 3.81 | −0.89 | 2.91 | 2.55 | 4.85 | 2.30 | – | – | – | – | – | – |
| Nc1nc(=O)c([C@@H]2O[C@H](CO)[C@@H](O)[C@H]2O)c[nH]1 [β-D-RB] | 3.18 | 1.12 | 4.30 | 2.74 | 4.00 | 1.27 | – | – | – | – | – | – |
| N=c1nc2c(c[nH]1)[C@@H]1O[C@H](CO)[C@@H](O)[C@@H]1O2 [β-D-TA] | 3.31 | 0.69 | 4.00 | 0.93 | 4.00 | 3.07 | – | – | – | – | – | – |
| Nc1ncnc2c([C@@H]3O[C@H](CO)[C@@H](O)[C@H]3O)cnn12 [β-D-UA] | 1.61 | 1.3 | 2.91 | 2.41 | 2.91 | 0.50 | – | – | – | – | – | – |
| Nc1nc(F)nc2c1ncn2[C@@H]1C=C[C@H](CO)O1 [β-L-FC] | 5.13 | 0.42 | 5.55 | 3.41 | 4.41 | 1.00 | – | – | – | – | – | – |
| Nc1nc(=O)n([C@H]2C[C@@H](CO)[C@H](O)[C@@H]2O)cc1F [β-L-GA] | – | – | – | – | – | – | > 100 | 27.9 | > 100 | −113.2 | > 100 | 1.1 |
| O=c1ccn([C@@H]2CC[C@H](CO)C2)c(=O)[nH]1 [β-L-GC] | – | – | – | – | – | – | > 100 | −13.4 | > 100 | −53.2 | > 100 | −1.2 |
| Nc1ccn([C@H]2C[C@@H](CO)[C@H](O)[C@@H]2O)c(=O)n1 [β-L-GD] | – | – | – | – | – | – | > 100 | 0.8 | > 100 | −12.9 | > 100 | −79.7 |
| Nc1ccn(C2CCC(CO)C2)c(=O)n1 [β-L-GE] | – | – | – | – | – | – | > 100 | 10.6 | > 100 | −59.7 | > 100 | 0.0 |
| Nc1nc(=O)n(C2CSC(CO)O2)cc1F [β-L-JB] | 4.55 | −0.90 | 3.65 | 2.45 | 3.65 | 1.20 | – | – | – | – | – | – |
| OC[C@@H]1O[C@H](n2cnc3c(Cl)ncnc32)CS1 [β-L-KA] | 4.84 | −0.74 | 4.10 | 3.69 | 4.10 | 0.42 | – | – | – | – | – | – |
| Nc1nc(F)nc2c1ncn2[C@@H]1CS[C@H](CO)O1 [β-L-KC] | 1.35 | −0.16 | 1.19 | 3.54 | 2.73 | −0.81 | – | – | – | – | – | – |
